Experimental data published in PubChem BioAssay (NCI).
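The compound was tested at five concentrations on cells cultured in 96-well plates, with a 48-hour exposure period. At the GI50, growth is halved. Definition used: TGI = concentration required for complete inhibition of growth.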

Key:
Test in all cases: growth of human tumour cells (NCI), 48 h
ACHN renal = test system: ACHN renal
BT-549 breast = test system: BT-549 breast
SN12C renal = test system: SN12C renal
M14 melanoma = test system: M14 melanoma
UACC-257 melanoma = test system: UACC-257 melanoma
UACC-62 melanoma = test system: UACC-62 melanoma
HL-60(TB) leukemia = test system: HL-60(TB) leukemia
HOP-92 NSCLC = test system: HOP-92 NSCLC
KM12 colon = test system: KM12 colon
PC-3 prostate = test system: PC-3 prostate
NCI/ADR-RES ovarian = test system: NCI/ADR-RES ovarian
OVCAR-3 ovarian = test system: OVCAR-3 ovarian
SK-MEL-2 melanoma = test system: SK-MEL-2 melanoma
RXF 393 renal = test system: RXF 393 renal
A549 NSCLC = test system: A549 NSCLC
T-47D breast = test system: T-47D breast
CCRF-CEM leukemia = test system: CCRF-CEM leukemia
DU-145 prostate = test system: DU-145 prostate
SNB-75 CNS = test system: SNB-75 CNS
TK-10 renal = test system: TK-10 renal
NCI-H226 lung = test system: NCI-H226 lung
HT29 colon = test system: HT29 colon
IGROV1 ovarian = test system: IGROV1 ovarian
RPMI-8226 leukemia = test system: RPMI-8226 leukemia
LOX IMVI melanoma = test system: LOX IMVI melanoma
NCI-H23 lung = test system: NCI-H23 lung
MOLT-4 leukemia = test system: MOLT-4 leukemia
OVCAR-8 ovarian = test system: OVCAR-8 ovarian
K-562 leukemia = test system: K-562 leukemia
OVCAR-4 ovarian = test system: OVCAR-4 ovarian
786-0 renal = test system: 786-0 renal
HCT-15 colon = test system: HCT-15 colon
OVCAR-5 ovarian = test system: OVCAR-5 ovarian
SK-OV-3 ovarian = test system: SK-OV-3 ovarian
MDA-N = test system: MDA-N
SF-268 CNS = test system: SF-268 CNS
CAKI-1 renal = test system: CAKI-1 renal
EKVX NSCLC = test system: EKVX NSCLC
SNB-19 CNS = test system: SNB-19 CNS
HS 578T breast = test system: HS 578T breast
MCF7 breast = test system: MCF7 breast
SR leukemia = test system: SR leukemia
HCC-2998 colon = test system: HCC-2998 colon
U251 CNS = test system: U251 CNS
MDA-MB-435 = test system: MDA-MB-435
SF-295 CNS = test system: SF-295 CNS
MDA-MB-231 breast = test system: MDA-MB-231 breast
UO-31 renal = test system: UO-31 renal
HOP-62 NSCLC = test system: HOP-62 NSCLC
SF-539 CNS = test system: SF-539 CNS
HCT-116 colon = test system: HCT-116 colon
SK-MEL-28 melanoma = test system: SK-MEL-28 melanoma
COLO 205 colon = test system: COLO 205 colon
NCI-H460 lung = test system: NCI-H460 lung
SK-MEL-5 melanoma = test system: SK-MEL-5 melanoma
MALME-3M melanoma = test system: MALME-3M melanoma
SW-620 colon = test system: SW-620 colon
NCI-H522 lung = test system: NCI-H522 lung

COc1cccc(/C=C/c2ccc(S(N)(=O)=O)cc2)c1
GI50 (ACHN renal): 7.12 µM
TGI (ACHN renal): > 100 µM
GI50 (BT-549 breast): 6.38 µM
TGI (BT-549 breast): > 100 µM
TGI (SN12C renal): 89.6 µM
TGI (M14 melanoma): > 100 µM
TGI (UACC-257 melanoma): 60.9 µM
GI50 (UACC-62 melanoma): 14 µM
TGI (UACC-62 melanoma): 58.9 µM
GI50 (HL-60(TB) leukemia): 10.4 µM
TGI (HL-60(TB) leukemia): 77.7 µM
GI50 (HOP-92 NSCLC): 3.29 µM
TGI (HOP-92 NSCLC): 35.8 µM
GI50 (KM12 colon): 12.2 µM
TGI (KM12 colon): > 100 µM
TGI (PC-3 prostate): > 100 µM
TGI (NCI/ADR-RES ovarian): > 100 µM
TGI (OVCAR-3 ovarian): 27.5 µM
TGI (SK-MEL-2 melanoma): 36.8 µM
TGI (RXF 393 renal): > 100 µM
GI50 (A549 NSCLC): 11 µM
TGI (A549 NSCLC): > 100 µM
TGI (T-47D breast): > 100 µM
GI50 (CCRF-CEM leukemia): 13.6 µM
TGI (CCRF-CEM leukemia): > 100 µM
TGI (DU-145 prostate): > 100 µM
TGI (SNB-75 CNS): 91.2 µM
TGI (TK-10 renal): 90 µM
GI50 (NCI-H226 lung): 2.91 µM
TGI (NCI-H226 lung): 17.5 µM
GI50 (HT29 colon): 0.554 µM
TGI (HT29 colon): > 100 µM
GI50 (IGROV1 ovarian): 2.5 µM
TGI (IGROV1 ovarian): 28.9 µM
GI50 (RPMI-8226 leukemia): 3.81 µM
TGI (RPMI-8226 leukemia): 19.8 µM
GI50 (LOX IMVI melanoma): 30.7 µM
TGI (LOX IMVI melanoma): > 100 µM
GI50 (NCI-H23 lung): 21 µM
TGI (NCI-H23 lung): 57.5 µM
GI50 (MOLT-4 leukemia): 26.8 µM
TGI (MOLT-4 leukemia): > 100 µM
GI50 (OVCAR-8 ovarian): 31.6 µM
TGI (OVCAR-8 ovarian): > 100 µM
GI50 (K-562 leukemia): 20.6 µM
TGI (K-562 leukemia): > 100 µM
GI50 (OVCAR-4 ovarian): 25 µM
TGI (OVCAR-4 ovarian): > 100 µM
TGI (786-0 renal): 98.2 µM
GI50 (HCT-15 colon): 3.6 µM
TGI (HCT-15 colon): 65.4 µM
TGI (OVCAR-5 ovarian): > 100 µM
TGI (SK-OV-3 ovarian): > 100 µM
TGI (MDA-N): > 100 µM
GI50 (SF-268 CNS): 17.1 µM
TGI (SF-268 CNS): > 100 µM
GI50 (CAKI-1 renal): 14.7 µM
TGI (CAKI-1 renal): > 100 µM
TGI (EKVX NSCLC): > 100 µM
TGI (SNB-19 CNS): > 100 µM
GI50 (HS 578T breast): 25.5 µM
TGI (HS 578T breast): 80.1 µM
TGI (MCF7 breast): > 100 µM
GI50 (SR leukemia): 5.21 µM
TGI (SR leukemia): 40.8 µM
TGI (HCC-2998 colon): 87.2 µM
GI50 (U251 CNS): 5.54 µM
TGI (U251 CNS): > 100 µM
GI50 (MDA-MB-435): 17.4 µM
TGI (MDA-MB-435): > 100 µM
TGI (SF-295 CNS): > 100 µM
TGI (MDA-MB-231 breast): 79.6 µM
TGI (UO-31 renal): > 100 µM
TGI (HOP-62 NSCLC): > 100 µM
GI50 (SF-539 CNS): 16.8 µM
TGI (SF-539 CNS): 77.6 µM
TGI (HCT-116 colon): 21.7 µM
TGI (SK-MEL-28 melanoma): > 100 µM
TGI (COLO 205 colon): 42.8 µM
TGI (NCI-H460 lung): > 100 µM
TGI (SK-MEL-5 melanoma): 66.8 µM
TGI (MALME-3M melanoma): > 100 µM

O=C1NN=C2C=C(c3ccc(Cl)cc3)CC(c3cccc(Br)c3)C12 (centres undefined)
TGI (ACHN renal): > 100 µM
TGI (BT-549 breast): > 100 µM
TGI (SN12C renal): > 100 µM
TGI (M14 melanoma): > 100 µM
TGI (UACC-257 melanoma): 67 µM
TGI (UACC-62 melanoma): > 100 µM
TGI (SW-620 colon): > 100 µM
TGI (HL-60(TB) leukemia): > 100 µM
TGI (HOP-92 NSCLC): 31.3 µM
TGI (KM12 colon): > 100 µM
TGI (PC-3 prostate): > 100 µM
TGI (NCI/ADR-RES ovarian): > 100 µM
TGI (OVCAR-3 ovarian): > 100 µM
TGI (SK-MEL-2 melanoma): > 100 µM
TGI (RXF 393 renal): > 100 µM
TGI (A549 NSCLC): > 100 µM
TGI (T-47D breast): > 100 µM
TGI (CCRF-CEM leukemia): 56.5 µM
TGI (DU-145 prostate): > 100 µM
TGI (SNB-75 CNS): > 100 µM
TGI (TK-10 renal): > 100 µM
TGI (NCI-H226 lung): > 100 µM
TGI (HT29 colon): > 100 µM
TGI (IGROV1 ovarian): > 100 µM
TGI (RPMI-8226 leukemia): > 100 µM
TGI (LOX IMVI melanoma): > 100 µM
TGI (NCI-H23 lung): > 100 µM
TGI (MOLT-4 leukemia): > 100 µM
TGI (OVCAR-8 ovarian): > 100 µM
TGI (K-562 leukemia): > 100 µM
TGI (OVCAR-4 ovarian): > 100 µM
TGI (786-0 renal): > 100 µM
TGI (HCT-15 colon): 61.7 µM
TGI (OVCAR-5 ovarian): > 100 µM
TGI (SK-OV-3 ovarian): > 100 µM
TGI (MDA-N): > 100 µM
TGI (NCI-H522 lung): > 100 µM
TGI (SF-268 CNS): > 100 µM
TGI (CAKI-1 renal): > 100 µM
TGI (EKVX NSCLC): > 100 µM
TGI (SNB-19 CNS): 57.7 µM
TGI (HS 578T breast): 68.1 µM
TGI (MCF7 breast): > 100 µM
TGI (SR leukemia): > 100 µM
TGI (HCC-2998 colon): > 100 µM
TGI (U251 CNS): > 100 µM
TGI (MDA-MB-435): > 100 µM
TGI (SF-295 CNS): > 100 µM
TGI (MDA-MB-231 breast): > 100 µM
TGI (UO-31 renal): > 100 µM
TGI (HOP-62 NSCLC): > 100 µM
TGI (SF-539 CNS): > 100 µM
TGI (HCT-116 colon): > 100 µM
TGI (COLO 205 colon): > 100 µM
TGI (NCI-H460 lung): > 100 µM
TGI (SK-MEL-5 melanoma): > 100 µM
TGI (MALME-3M melanoma): > 100 µM
